We go through three compounds from patent US20250206761A1, “HALOINDOLE MACROCYCLIC COMPOUNDS FOR THE TREATMENT OF CANCER” (Hoffmann-La Roche Inc., priority 2022, published 2025).

The test system of assay [1] is phosphorylation of ERK, KRAS G12V in SW620. In words: pERK inhibition assay, KRAS G12V. In kind it is cell-based, human. Conditions: Homo sapiens, SW-620, SW620, 4 hours. On the procedure: (§1) This assay is to measure the ability of test compounds in inhibiting the phosphorylation of ERK, the downstream signaling of KRAS G12C in NCJ-H358 cells, KRAS G12D in AGS cells, and KRAS G12V in SW620. NCJ-H358 (ATCC-CRL5807) cells, AGS (ATCC-CRL-1739) cells, SW620 (ATCC-CCL-227) cells were all grown and maintained using RPMI-1640 medium (Thermo Fisher Scientific) with 10% fetal bovine serum and 1% penicillin/streptomycin. On the day prior to compound addition, cells were plated in tissue culture-treated 96 well plates (Corning-3699) at a density of 30,000 cell/well, 20,000 cell/well, 30,000 cell/well for NCJ-H358, AGS and SW620 respectively, and allowed for attachment overnight. Diluted compounds were then added in a final concentration of 0.5% DMSO. After 4 hours of incubation, the medium was removed, 100 μL of 4% formaldehyde was added, and the assay plates were incubated at room temperature for 20 minutes. The plates were then washed once with phosphate buffered saline (PBS), and permeabilized with 100 μL of chilled methanol for 10 minutes. Non-specific antibody binding to the plates was blocked using 50 μL 1×BSA blocking buffer (Thermo-37520, 10-fold dilution by Phosphate-Buffered Saline Tween (PBST) for at least 1 hour at room temperature.
(§2) The amount of phosphor-ERK was determined using an antibody specific for phosphorylated form of ERK. Primary antibody (pERK, CST-4370, Cell Signaling Technology) was diluted 1:300 in blocking buffer, with 50 μL aliquoted to each well, and incubated overnight at 4′° C. Cells was washed five times for 5 minutes with PBST. Secondary antibody ([…] anti-rabbit IgG, CST-7074, Cell Signaling Technology) was diluted 1:1000 in blocking buffer, and 50 μL was added to each well and incubated 1-2 hrs at room temperature. Cells was washed 5 times for 5 minutes with PBST, 100 μL TMB ELISA substrate (abcam-ab171523) were added and gently shake for 20 minutes. 50 μL stop solution (abcam-ab171529) were added, and then read the signal (OD450) by EnVision.
(§3) IC50 was determined by fitting a 4-parameter sigmoidal concentration response model.

Assay [2] concerns the target KRAS G12D binding to BRAF (Homo sapiens (Human), UniProt P01116+P62937, G12D). As to the kind of experiment: KRAS-BRAF with CYPA (500 nM) interaction assay (TR-FRET), G12D. In kind it is biochemical. On the procedure: (§4) In this example, TR-FRET was also used to measure the compound or compound-CYPA dependent disruption of the KRAS G12C-BRAF complex. This protocol was also used to measure disruption of KRAS G12D or KRAS G12V binding to BRAF by a compound of the invention, respectively. In assay buffer containing 25 mM HEPES PH=7.4 (4-(2-hydroxyethyl)-1-piperazineethanesulfonic acid, Thermo, 15630080), 0.002% Tween20, 0.1% BSA, 100 mM NaCl, 5 mM MgCl2, 10 μM GMPPNP (Guanosine 5′-[β,γ-imido]triphosphate trisodium salt hydrate, Sigma, G0635), […] 384-well assay plate at final concentrations of 50 nM, 6.25 nM and 1 nM, respectively. Compound was present in plate wells as a 16-point 3-fold dilution series starting at a final concentration of 10 μM and incubated for 3 hours. A mixture of MAb Anti-6His-XL665 (Cisbio, 61HISXLB) and Mab anti-GST-TB cryptate (Cisbio, 61GSTTLB) was then added at a final concentration of 6.67 nM and 0.21 nM, respectively, and the plate was incubated for an additional 1.5 hours. TR-FRET signal was read on a PHERstar FSX microplate reader (Ex320 nm, Em 665/615 nm). Compounds that facilitate disruption of the KRAS-BRAF complex were identified as those eliciting a decrease in the TR-FRET ratio relative to DMSO control wells.
For orientation: Time-resolved FRET reads energy transfer from a long-lived donor to a nearby acceptor.

Another assay addresses KRAS G12C-BRAF complex (Homo sapiens (Human), UniProt P01116+P62937, G12C). In words: KRAS-BRAF with CYPA (500 nM) interaction assay (TR-FRET), G12C. The class given is biochemical. On the procedure:
as §4

Assay [3] has as its system phosphorylation of ERK, KRAS G12C in NCJ-H358 cells. As to the kind of experiment: pERK inhibition assay, KRAS G12C. The class given is cell-based, human. The note with it: Homo sapiens, 4 hours. On the procedure:
as §1, §2, §3

The target in assay [4] is KRAS G12V binding to BRAF (Homo sapiens (Human), UniProt P01116+P62937, G12V). In words: KRAS-BRAF with CYPA (500 nM) interaction assay (TR-FRET), G12V. The class given is biochemical. On the procedure: In this example, TR-FRET was also used to measure the compound or compound-CYPA dependent disruption of the KRAS G12C-BRAF complex. This protocol was also used to measure disruption of KRAS G12D or KRAS G12V binding to BRAF by a compound of the invention, respectively. In assay buffer containing 25 mM HEPES PH=7.4 (4-(2-hydroxyethyl)-1-piperazineethanesulfonic acid, Thermo, 15630080), 0.002% Tween20, 0.1% BSA, 100 mM NaCl, 5 mM MgCl2, 10 μM GMPPNP (Guanosine 5′-[β,γ-imido]triphosphate trisodium salt hydrate, Sigma, G0635), […], GMPPNP loaded 6His-KRAS proteins, and […], 6.25 nM and 1 nM, respectively. Compound was present in plate wells as a 16-point 3-fold dilution series starting at a final concentration of 10 μM and incubated for 3 hours. A mixture of MAb Anti-6His-XL665 (Cisbio, 61HISXLB) and Mab anti-GST-TB cryptate (Cisbio, 61GSTTLB) was then added at a final concentration of 6.67 nM and 0.21 nM, respectively, and the plate was incubated for an additional 1.5 hours. TR-FRET signal was read on a PHERstar FSX microplate reader (Ex320 nm, Em 665/615 nm). Compounds that facilitate disruption of the KRAS-BRAF complex were identified as those eliciting a decrease in the TR-FRET ratio relative to DMSO control wells.
Sequence of KRAS G12V binding to BRAF (P01116-2 other isoform, or with tags, fused parts or gaps G12V): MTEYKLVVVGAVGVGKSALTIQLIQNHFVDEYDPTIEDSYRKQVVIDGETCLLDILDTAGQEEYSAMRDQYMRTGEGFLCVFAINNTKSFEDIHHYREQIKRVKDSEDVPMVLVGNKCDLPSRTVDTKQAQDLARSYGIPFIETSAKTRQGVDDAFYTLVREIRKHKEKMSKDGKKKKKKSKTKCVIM
Sequence of KRAS G12V binding to BRAF (P62937 whole entry): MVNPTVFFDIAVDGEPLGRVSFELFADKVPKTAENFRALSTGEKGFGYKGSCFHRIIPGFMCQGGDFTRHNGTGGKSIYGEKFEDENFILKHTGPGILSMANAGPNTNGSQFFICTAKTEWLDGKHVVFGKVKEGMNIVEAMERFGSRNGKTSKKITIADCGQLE

Sequence of KRAS G12D binding to BRAF (P01116-2 other isoform, or with tags, fused parts or gaps G12D): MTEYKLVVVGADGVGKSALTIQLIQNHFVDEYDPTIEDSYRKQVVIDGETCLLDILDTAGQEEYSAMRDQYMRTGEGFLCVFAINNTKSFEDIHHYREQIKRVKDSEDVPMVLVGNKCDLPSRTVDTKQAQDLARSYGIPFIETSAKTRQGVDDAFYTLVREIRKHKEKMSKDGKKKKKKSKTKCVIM
Sequence of KRAS G12D binding to BRAF (P62937 whole entry): as the sequence (P62937 whole entry) above
Sequence of KRAS G12C-BRAF complex (P01116-2 other isoform, or with tags, fused parts or gaps G12C): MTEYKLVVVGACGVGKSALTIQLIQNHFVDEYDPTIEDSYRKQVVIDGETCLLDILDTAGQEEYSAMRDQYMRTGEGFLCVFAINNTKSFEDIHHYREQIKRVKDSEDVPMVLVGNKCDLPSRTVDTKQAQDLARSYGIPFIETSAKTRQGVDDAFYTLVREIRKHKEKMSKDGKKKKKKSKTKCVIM
Sequence of KRAS G12C-BRAF complex (P62937 whole entry): as the sequence (P62937 whole entry) above

What is called IC50 is the concentration that inhibits the measured activity by half. As to `CCn1c(-c2cc(N3CCN(C)CC3)cnc2[C@H](C)OC)c2c3cc(c(F)cc31)-c1csc(n1)C[C@H](NC(=O)[C@H](COC1CN(C(=O)[C@H](F)Cl)C1)C(C)C)C(=O)N1CCC[C@H](N1)C(=O)OCC(C)(C)C2` (atropisomer, axis not shown; (M)) [Example 41, (2S)-2-[[1-[(2R)-2-chloro-2-fluoro-acetyl]azetidin-3-yl]oxymethyl]-N-[(7S,13S)-21-ethyl-24-fluoro-(20M)-20-[2-[(1S)-1-methoxyethyl]-5-(4-methylpiperazin-1-yl)-3-pyridyl]-17,17-dimethyl-8,14-dioxo-15-oxa-4-thia-9,21,27,28-tetrazapentacyclo[17.5.2.1^2,5.1^9,13.0^22,26]octacosa-1(25),2,5(28),19,22(26),23-hexaen-7-yl]-3-methyl-butanamide], the half-inhibitory concentration (IC50) in assay [1] is 199 nM; in assay [2], above 10000 nM; on KRAS G12C-BRAF complex, 88 nM; in assay [3], 107 nM; in assay [4], 1170 nM.

For `CCn1c(-c2cc(N3CCN(CC(F)(F)F)CC3)cnc2[C@H](C)OC)c2c3cc(c(F)cc31)-c1csc(n1)C[C@H](NC(=O)[C@H](C(C)C)N1CCCC3(CCN(C(=O)[C@H](F)Cl)CC3)C1=O)C(=O)N1CCC[C@H](N1)C(=O)OCC(C)(C)C2` (atropisomer, axis not shown; (M)) [Example 48, (2S)-2-[9-[(2R)-2-chloro-2-fluoro-acetyl]-1-oxo-2,9-diazaspiro[5.5]undecan-2-yl]-N-[(7S,13S)-21-ethyl-24-fluoro-(20M)-20-[2-[(1S)-1-methoxyethyl]-5-[4-(2,2,2-trifluoroethyl)piperazin-1-yl]-3-pyridyl]-17,17-dimethyl-8,14-dioxo-15-oxa-4-thia-9,21,27,28-tetrazapentacyclo[17.5.2.1^2,5.1^9,13.0^22,26]octacosa-1(25),2,5(28),19,22(26),23-hexaen-7-yl]-3-methyl-butanamide], the IC50 in assay [1] is 12 nM; in assay [2], 1030 nM; against KRAS G12C-BRAF complex it was 47 nM; in assay [3], 2 nM; in assay [4], above 10000 nM.

For the compound `CCn1c(-c2cc(N3CCOCC3)cnc2[C@H](C)OC)c2c3cc(c(F)cc31)-c1csc(n1)C[C@H](NC(=O)[C@H](C(C)C)N1CCC3(CCN(C(=O)[C@H](F)Cl)CC3)C1=O)C(=O)N1CCC[C@H](N1)C(=O)OCC(C)(C)C2` (atropisomer, axis not shown; (M)) [Example 50, (2S)-2-[8-[(2R)-2-chloro-2-fluoro-acetyl]-1-oxo-2,8-diazaspiro[4.5]decan-2-yl]-N-[(7S,13S)-21-ethyl-24-fluoro-(20M)-20-[2-[(1S)-1-methoxyethyl]-5-morpholino-3-pyridyl]-17,17-dimethyl-8,14-dioxo-15-oxa-4-thia-9,21,27,28-tetrazapentacyclo[17.5.2.1^2,5.1^9,13.0^22,26]octacosa-1(25),2,5(28),19,22(26),23-hexaen-7-yl]-3-methyl-butanamide], the IC50 in assay [1] is 6 nM; in assay [2], above 10000 nM; against KRAS G12C-BRAF complex it was 124 nM; in assay [3], 6 nM; in assay [4] it was above 10000 nM.
